Measurements as given in patent US20170052170A1, “NOVEL CELL LINES AND METHODS” (priority 2009, published 2017).
Like-named read-outs stand apart in the source and are kept apart here. Peptide text beside a SMILES is read from it.

Columns and labels:
[1] = molecular target: T1, GABAA α1β3γ2s (α1) (Homo sapiens, UniProt P14867+P18507+P28472); type: cell-based; conditions: CHO cells, membrane potential dye
T1 construct: expressed in transfected cells; host or cells: CHO
Procedure: (§1) Cells were plated 24 hours prior to assay at 10-25,000 cells per well in 384 well plates in growth media (Ham's F-12 media plus FBS and glutamine). […] Incubation was for 1 hour, followed by plate loading onto the high throughput fluorescent plate reader (Hamamastu FDSS). […] The plates were read for 90 seconds.
(§2) Interaction of cell lines with test compounds was evaluated by measuring the membrane potential of GABAA, in response to test compounds using the following protocol.

[2] = molecular target: T2, GABAA α2β3γ2s (α2) (Homo sapiens, UniProt P18507+P28472+P47869, A343T); type: cell-based
T2 construct: expressed in transfected cells; host or cells: CHO
Procedure: as §1, §2

[3] = molecular target: T3, GABAA α3β3γ2s (α3) (Homo sapiens, UniProt P18507+P28472+P34903); type: cell-based; conditions: CHO cells, membrane potential dye
T3 construct: expressed in transfected cells; host or cells: CHO
Procedure: as §1, §2

[4] = molecular target: T4, GABAA α5β3γ2s (α5) (Homo sapiens, UniProt P18507+P28472+P31644); type: cell-based
T4 construct: expressed in transfected cells; host or cells: CHO
Procedure: as §1, §2

[5] = test system: GABAA (α1β3γ2s, α2β3γ2s, α3β3γ2s, α5β3γ2s); test: In-cell readout assay using halide-sensitive meYFP, GABAA-meYFP-CHO cells; type: cell-based, human; conditions: increasing concentrations of GABA ligand
Procedure: The response of GABAA (subunit combinations of α1β3γ2s (A1), α2β3γ2s (A2), α3β3γ2s (A3) and α5β3γ2s (A5)) expressing CHO cells of the invention to test compounds was evaluated using the following protocol for an in-cell readout assay.
Cells were plated 24 hours prior to assay at 10-25,000 cells per well in 384 well plates in growth media (Ham's F-12 media plus FBS and glutamine). […] The assay plates were then loaded on the FDSS (Hamamatsu Corporation). […] The plates were read for 90 seconds.

[6] = molecular target: T5, sweet taste receptor (human T1R2 and T1R3 subunits, mouse Gα15) (Homo sapiens, UniProt Q7RTX0+Q8TE23, C757R/I191V/I486V/R317G); test: sweet taste receptor-expressing cell-based assay (calcium flux); conditions: natural, high intensity and artificial sweeteners; FIGS. 23 and 24
T5 construct: expressed in transfected cells; host or cells: HEK293T (ATCC CRL-11268)
T5 sequence (Q8TE23 20-839 I191V/R317G/I486V): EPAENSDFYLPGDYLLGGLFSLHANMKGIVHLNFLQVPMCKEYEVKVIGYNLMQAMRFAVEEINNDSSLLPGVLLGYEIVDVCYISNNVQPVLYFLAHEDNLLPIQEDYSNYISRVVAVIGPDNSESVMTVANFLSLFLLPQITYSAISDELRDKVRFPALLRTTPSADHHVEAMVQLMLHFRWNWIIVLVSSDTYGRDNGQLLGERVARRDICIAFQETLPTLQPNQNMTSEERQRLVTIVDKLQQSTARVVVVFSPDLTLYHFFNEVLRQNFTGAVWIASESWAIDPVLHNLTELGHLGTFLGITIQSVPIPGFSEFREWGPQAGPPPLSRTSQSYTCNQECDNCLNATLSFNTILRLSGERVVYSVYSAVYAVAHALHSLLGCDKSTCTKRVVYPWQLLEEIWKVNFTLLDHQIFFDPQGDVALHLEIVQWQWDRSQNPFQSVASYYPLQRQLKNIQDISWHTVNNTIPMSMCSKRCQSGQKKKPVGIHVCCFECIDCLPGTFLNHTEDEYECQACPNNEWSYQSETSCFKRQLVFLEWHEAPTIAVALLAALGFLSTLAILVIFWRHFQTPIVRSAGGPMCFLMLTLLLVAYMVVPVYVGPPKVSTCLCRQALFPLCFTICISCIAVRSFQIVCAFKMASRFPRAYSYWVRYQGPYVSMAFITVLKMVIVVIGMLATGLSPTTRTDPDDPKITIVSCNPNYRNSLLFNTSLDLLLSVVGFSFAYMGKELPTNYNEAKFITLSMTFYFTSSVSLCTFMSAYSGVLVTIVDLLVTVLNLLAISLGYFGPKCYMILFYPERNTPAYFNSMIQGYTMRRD
T5 sequence (Q7RTX0 21-852 C757R): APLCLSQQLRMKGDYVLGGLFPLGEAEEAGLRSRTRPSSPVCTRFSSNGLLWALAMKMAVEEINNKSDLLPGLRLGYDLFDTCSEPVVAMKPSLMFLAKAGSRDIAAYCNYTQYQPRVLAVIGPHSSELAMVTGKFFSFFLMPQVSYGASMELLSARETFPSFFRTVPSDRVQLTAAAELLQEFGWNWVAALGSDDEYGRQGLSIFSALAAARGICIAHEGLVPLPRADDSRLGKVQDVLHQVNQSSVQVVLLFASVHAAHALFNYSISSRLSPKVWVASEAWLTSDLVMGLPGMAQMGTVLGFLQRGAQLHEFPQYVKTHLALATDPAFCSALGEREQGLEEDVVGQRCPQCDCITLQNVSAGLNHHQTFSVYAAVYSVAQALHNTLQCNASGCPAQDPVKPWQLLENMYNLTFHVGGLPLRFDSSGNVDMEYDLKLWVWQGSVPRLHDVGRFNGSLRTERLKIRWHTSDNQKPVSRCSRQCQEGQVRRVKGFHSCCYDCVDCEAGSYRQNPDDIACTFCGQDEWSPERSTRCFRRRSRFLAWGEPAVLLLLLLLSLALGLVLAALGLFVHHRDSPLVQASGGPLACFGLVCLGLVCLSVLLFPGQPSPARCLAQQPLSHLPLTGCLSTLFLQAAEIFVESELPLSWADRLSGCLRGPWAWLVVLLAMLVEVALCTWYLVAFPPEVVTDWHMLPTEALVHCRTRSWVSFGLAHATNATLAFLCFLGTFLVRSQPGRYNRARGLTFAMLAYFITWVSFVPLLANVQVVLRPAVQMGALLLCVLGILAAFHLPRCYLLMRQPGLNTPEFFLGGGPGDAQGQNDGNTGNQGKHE
Description: FIG. 24 (A-C) is series of line graphs representing the data obtained in various dose response experiments using sweet taste receptor agonists in a sweet taste receptor-expressing cell-based assay (using cells of this invention). (A) The responses of a sweet taste receptor-expressing cell line to natural caloric sweeteners were plotted as a function of the agonist concentration. (B) Dose response curves of common artificial sweeteners in a sweet taste receptor-expressing cell-based assay. (C) Dose response curves of natural high-intensity sweeteners in a sweet taste receptor-expressing cell-based assay.
FIG. 25 is a series of representative response traces generated after performing a sweet taste receptor-expressing cell-based assay using cells of this invention.
To identify a taste receptor modulator (e.g., umami taste receptor modulator or sweet taste receptor modulator), one exposes a cell or cell line of the invention to a test compound under conditions in which the taste receptor (e.g., umami taste receptor or sweet taste receptor) would be expected to be functional and then detects a statistically significant change (e.g., p<0.05) in taste receptor activity (e.g., umami taste receptor activity or sweet taste receptor activity) compared to a suitable control, e.g., cells that are not exposed to the test compound. Positive and/or negative controls using known agonists or antagonists and/or cells expressing different combinations of taste receptor subunits (e.g., umami taste receptor subunits or sweet taste receptor subunits) (and optionally a G protein) may also be used. In some embodiments, the taste receptor activity (e.g., umami taste receptor activity or sweet taste receptor activity) to be detected and/or measured is calcium release from the endoplasmic reticulum as a result of the down stream signaling events following taste receptor activation (e.g., umami taste receptor activation or sweet taste receptor activation). One of ordinary skill in the art would understand that various assay parameters may be optimized, e.g., signal to noise ratio.
See, e.g., FIGS. 23 and 24.

[7] = molecular target: T6, sweet taste receptor (T1R2/T1R3) (Homo sapiens, UniProt Q7RTX0+Q8TE23, C757R/I191V/I486V/R317G); test: Sweet cell-based calcium flux assay, HEK293T cells expressing T1R2, T1R3 and mouse Gα15; conditions: FIG. 24, one assay; read-out: EC50 values (calcium flux)
T6 construct: expressed in transfected cells; host or cells: HEK293T (ATCC CRL-11268)
T6 sequence (Q8TE23 20-839 I191V/R317G/I486V): T5 sequence (Q8TE23 20-839 I191V/R317G/I486V)
T6 sequence (Q7RTX0 21-852 C757R): T5 sequence (Q7RTX0 21-852 C757R)
Description: Plates are then loaded on a high throughput plate reader (Hamamatsu FDSS). […] Calcium flux is detected for 90 seconds.

[8] = molecular target: human GC-C (human) (UniProt P25092); test: cell-based or functional assay
[9] = CHO cells, membrane potential dye

T1 sequence (P14867 28-456): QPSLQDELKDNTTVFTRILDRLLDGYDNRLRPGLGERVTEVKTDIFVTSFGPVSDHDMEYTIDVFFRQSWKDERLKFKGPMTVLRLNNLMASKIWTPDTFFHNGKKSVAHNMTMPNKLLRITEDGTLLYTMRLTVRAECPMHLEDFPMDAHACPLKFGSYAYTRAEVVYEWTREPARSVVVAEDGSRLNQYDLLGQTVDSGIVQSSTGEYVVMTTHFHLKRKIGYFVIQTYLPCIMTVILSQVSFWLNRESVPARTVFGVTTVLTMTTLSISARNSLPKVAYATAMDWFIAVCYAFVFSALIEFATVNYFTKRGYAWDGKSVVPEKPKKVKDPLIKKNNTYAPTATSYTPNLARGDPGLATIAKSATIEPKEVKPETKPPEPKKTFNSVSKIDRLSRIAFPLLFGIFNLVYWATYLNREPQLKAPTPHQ
T1 sequence (P28472 26-473): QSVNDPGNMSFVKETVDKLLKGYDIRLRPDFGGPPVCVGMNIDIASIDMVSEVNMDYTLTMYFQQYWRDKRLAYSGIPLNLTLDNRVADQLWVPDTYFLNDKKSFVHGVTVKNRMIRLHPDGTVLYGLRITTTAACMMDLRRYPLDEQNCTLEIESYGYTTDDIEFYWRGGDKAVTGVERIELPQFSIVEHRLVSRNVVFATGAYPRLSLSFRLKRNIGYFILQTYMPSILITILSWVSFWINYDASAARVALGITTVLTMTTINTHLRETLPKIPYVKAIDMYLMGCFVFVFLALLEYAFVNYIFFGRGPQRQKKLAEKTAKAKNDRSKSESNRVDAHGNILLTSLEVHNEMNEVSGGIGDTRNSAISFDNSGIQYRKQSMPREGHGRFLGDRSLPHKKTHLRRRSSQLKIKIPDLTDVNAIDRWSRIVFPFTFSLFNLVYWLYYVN
T1 sequence (P18507 40-467 isoform P18507-1 limits assumed): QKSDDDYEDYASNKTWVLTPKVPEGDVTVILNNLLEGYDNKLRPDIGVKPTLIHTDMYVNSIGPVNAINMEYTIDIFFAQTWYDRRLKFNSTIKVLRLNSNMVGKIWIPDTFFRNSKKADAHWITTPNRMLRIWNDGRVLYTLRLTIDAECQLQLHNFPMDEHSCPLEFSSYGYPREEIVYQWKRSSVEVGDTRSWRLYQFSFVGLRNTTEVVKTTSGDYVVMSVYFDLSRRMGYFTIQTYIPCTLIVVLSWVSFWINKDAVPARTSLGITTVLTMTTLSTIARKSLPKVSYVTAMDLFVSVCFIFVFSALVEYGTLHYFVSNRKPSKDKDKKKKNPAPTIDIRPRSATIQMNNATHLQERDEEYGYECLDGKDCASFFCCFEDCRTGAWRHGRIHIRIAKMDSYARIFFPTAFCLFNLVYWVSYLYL
T2 sequence (P47869 29-451 A343T): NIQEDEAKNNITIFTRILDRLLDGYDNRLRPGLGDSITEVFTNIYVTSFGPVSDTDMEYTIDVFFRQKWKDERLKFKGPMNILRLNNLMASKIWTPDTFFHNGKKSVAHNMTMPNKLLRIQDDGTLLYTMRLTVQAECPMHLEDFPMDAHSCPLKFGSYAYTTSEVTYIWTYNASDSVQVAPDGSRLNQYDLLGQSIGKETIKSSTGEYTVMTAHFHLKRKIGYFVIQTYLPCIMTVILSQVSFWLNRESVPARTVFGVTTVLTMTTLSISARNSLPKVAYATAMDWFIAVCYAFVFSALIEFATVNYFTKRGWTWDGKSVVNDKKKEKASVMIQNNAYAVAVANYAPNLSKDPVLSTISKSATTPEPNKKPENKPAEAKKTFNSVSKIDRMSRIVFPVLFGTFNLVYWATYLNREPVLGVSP
T2 sequence (P28472 26-473, stated change not applied): as the sequence (P28472 26-473) above
T2 sequence (P18507 40-467 isoform P18507-1 limits assumed, stated change not applied): as the sequence (P18507 40-467 isoform P18507-1 limits assumed) above
T3 sequence (P34903 29-492): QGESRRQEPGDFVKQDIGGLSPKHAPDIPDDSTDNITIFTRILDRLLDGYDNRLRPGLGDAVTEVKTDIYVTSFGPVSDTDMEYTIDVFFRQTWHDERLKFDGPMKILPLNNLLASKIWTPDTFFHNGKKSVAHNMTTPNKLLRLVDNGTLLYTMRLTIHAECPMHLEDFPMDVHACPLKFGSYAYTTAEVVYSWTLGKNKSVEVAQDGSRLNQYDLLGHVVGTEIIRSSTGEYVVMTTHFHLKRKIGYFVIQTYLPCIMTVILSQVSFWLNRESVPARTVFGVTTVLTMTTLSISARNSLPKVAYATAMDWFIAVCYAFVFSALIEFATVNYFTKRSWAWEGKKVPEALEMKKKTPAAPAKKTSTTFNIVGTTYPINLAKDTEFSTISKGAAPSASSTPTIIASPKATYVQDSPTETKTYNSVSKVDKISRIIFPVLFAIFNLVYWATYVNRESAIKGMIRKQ
T3 sequence (P28472 26-473): as the sequence (P28472 26-473) above
T3 sequence (P18507 40-467 isoform P18507-1 limits assumed): as the sequence (P18507 40-467 isoform P18507-1 limits assumed) above
T4 sequence (P31644 32-462): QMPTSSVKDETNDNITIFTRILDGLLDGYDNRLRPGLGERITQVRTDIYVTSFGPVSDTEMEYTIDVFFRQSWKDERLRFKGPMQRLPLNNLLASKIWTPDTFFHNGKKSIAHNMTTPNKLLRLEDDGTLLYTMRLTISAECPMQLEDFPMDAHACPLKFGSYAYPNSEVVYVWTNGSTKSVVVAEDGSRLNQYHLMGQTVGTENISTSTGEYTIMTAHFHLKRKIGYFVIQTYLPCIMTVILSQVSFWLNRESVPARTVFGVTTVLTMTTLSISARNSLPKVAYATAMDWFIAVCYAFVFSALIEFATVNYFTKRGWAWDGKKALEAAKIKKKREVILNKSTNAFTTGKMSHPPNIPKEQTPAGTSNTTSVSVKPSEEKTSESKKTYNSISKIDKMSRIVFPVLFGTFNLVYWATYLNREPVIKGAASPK
T4 sequence (P28472 26-473): as the sequence (P28472 26-473) above
T4 sequence (P18507 40-467 isoform P18507-1 limits assumed): as the sequence (P18507 40-467 isoform P18507-1 limits assumed) above
human GC-C (human), sequence (P25092 24-1073): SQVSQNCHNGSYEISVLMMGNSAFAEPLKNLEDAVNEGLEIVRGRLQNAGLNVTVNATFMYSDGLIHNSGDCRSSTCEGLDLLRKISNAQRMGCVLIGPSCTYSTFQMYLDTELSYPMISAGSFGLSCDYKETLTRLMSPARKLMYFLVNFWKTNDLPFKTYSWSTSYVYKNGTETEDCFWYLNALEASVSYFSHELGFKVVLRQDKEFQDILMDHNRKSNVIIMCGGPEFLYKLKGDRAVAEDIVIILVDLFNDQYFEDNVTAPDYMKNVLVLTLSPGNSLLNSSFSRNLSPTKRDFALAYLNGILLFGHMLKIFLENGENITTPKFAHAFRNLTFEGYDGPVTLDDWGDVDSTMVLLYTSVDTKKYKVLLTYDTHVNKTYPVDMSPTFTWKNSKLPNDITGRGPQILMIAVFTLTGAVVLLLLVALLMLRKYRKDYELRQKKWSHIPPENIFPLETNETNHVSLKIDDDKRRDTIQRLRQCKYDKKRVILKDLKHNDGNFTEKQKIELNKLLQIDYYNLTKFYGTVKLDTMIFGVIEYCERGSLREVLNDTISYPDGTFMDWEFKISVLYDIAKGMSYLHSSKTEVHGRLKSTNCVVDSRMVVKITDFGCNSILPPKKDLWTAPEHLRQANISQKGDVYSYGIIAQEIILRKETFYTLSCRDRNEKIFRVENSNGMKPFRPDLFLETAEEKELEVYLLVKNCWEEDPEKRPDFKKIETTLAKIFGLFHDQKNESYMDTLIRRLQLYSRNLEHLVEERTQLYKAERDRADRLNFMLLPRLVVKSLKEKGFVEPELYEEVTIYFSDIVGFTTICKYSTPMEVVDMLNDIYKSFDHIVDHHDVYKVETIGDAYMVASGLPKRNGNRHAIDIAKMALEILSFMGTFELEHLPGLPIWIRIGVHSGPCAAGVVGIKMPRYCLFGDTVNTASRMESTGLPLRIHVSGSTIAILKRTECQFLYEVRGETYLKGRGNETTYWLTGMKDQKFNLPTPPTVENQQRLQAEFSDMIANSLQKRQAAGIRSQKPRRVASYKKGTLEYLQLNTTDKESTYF

| Compound | EC50 [1] [µM] | EC50 [2, 9] [µM] | EC50 [3] [µM] | response of sweet taste receptor cells and cell lines to known classes of sweet compounds [6] | further results |
| --- | --- | --- | --- | --- | --- |
| CC12CCC(O)CC1CCC1C2CCC2(C)C(C(=O)CO)CCC12 (stereo not drawn) [3-alpha, 21-dihydroxy-5-alpha-pregnan-20-one] | 0.382 | 0.123 | 0.0802 | – | EC50 [4, 9]: 0.0173 µM |
| CC(=O)C1CCC2C3CCC4CC(O)CCC4(C)C3CCC12C (stereo not drawn) [5-alpha-Pregnan-3alpha-ol-20-one] | 0.692 | – | 0.08 | – | EC50 [2]: 0.14 µM; EC50 [4]: 0.0336 µM |
| NCCCC(=O)O [GABA] | – | – | – | – | quench of meYFP signal [5]: increasing quench of meYFP signal |
| COc1cc(/C=C(\C#N)C(=O)c2ccc(O)c(O)c2)cc(I)c1O [I—OMe Tyrphostin 538] | 3.5 | 1.5 | 2.2 | – | EC50 Values α5 (result in words) [4, 9]: Not active |
| CC(C)(C)c1cc(C=C(C#N)C#N)cc(C(C)(C)C)c1O [Tyrphostin A9] | 1.8 | 0.88 | 5 | – | EC50 [4, 9]: 54 µM |
| CC1=CC(=O)NS(=O)(=O)O1 [acesulfamek] | – | – | – | respond | – |
| COC(=O)[C@H](Cc1ccccc1)NC(=O)[C@@H](N)CC(=O)O [asparatame] (H-Asp-Phe-OMe) | – | – | – | respond | – |
| C=C1C[C@@]23CC[C@H]4[C@@](C)(CCC[C@@]4(C)C(=O)O[C@@H]4O[C@H](CO)[C@@H](O)[C@H](O)[C@H]4O)[C@@H]2CC[C@]1(O[C@@H]1O[C@H](CO)[C@@H](O)[C@H](O[C@@H]2O[C@H](CO)[C@@H](O)[C@H](O)[C@H]2O)[C@H]1O[C@@H]1O[C@H](CO)[C@@H](O)[C@H](O)[C@H]1O)C3 [rebaudioside A] | – | – | – | respond | – |
| O=C1NS(=O)(=O)c2ccccc21 [saccharin] | – | – | – | respond | – |
| OC[C@H]1O[C@@](CO)(O[C@H]2O[C@H](CO)[C@@H](O)[C@H](O)[C@H]2O)[C@@H](O)[C@@H]1O [sucrose] | – | – | – | respond | EC50 [7]: < 3500 µM |
| Ivermectin | 4.26 | 0.767 | 0.798 | – | EC50 [4, 9]: 0.687 µM |
| guanylin (peptide) | – | – | – | – | EC50 of guanylin dose-response (absorbance as a function of changes in cGMP levels) [8]: 0.0011 µM; level of cGMP [8]: 6 pmol/mL |
| mogroside | – | – | – | respond | – |
